For experiment [1], the system named is patients carrying the mutation m.3243A>G in the mitochondrial DNA. Briefly: Khenergy phase 2 trial: Beck Depression Inventory-II (BDI). It is filed as in vivo, human. From the text: (§1) The Khenergy trial (clinicaltrial.gov identifier NCT02909400) was a double blind, randomized, placebo-controlled, single-centre, two-way cross-over trial. Twenty patients, with a confirmed mitochondrial DNA tRNALeu(UUR) m.3243A>G mutation and with clinical signs of mitochondrial disease, were randomized over 2 groups (active or placebo first). After a screening period and a training session, each group had 2 dosing periods of 28 days, with a washout period of at least 28 days in between. On these occasions (i.e. during the dosing periods), patients received 100 mg KH176 twice daily (treatment A) or a matching placebo (treatment B) twice daily for 28 days. Clinical assessments were performed once in a training session prior to baseline, at baseline and in week 4 post dosing during each treatment phase (A and B). Testing conditions and circumstances, with respect to timing of the assessments, hospitalization and meals, were standardized for each assessment period. Furthermore, assessments of biomarkers for mitochondrial functioning, pharmacokinetics and specific safety assessments were performed weekly. Trial results have been published (Janssen, Koene, De Laat, et al., 2018)
The effect of KH176 on depression symptoms in patients carrying the mutation m.3243A>G in the mitochondrial DNA was evaluated with the Beck Depression Inventory-II (BDI) score and Hospital Anxiety and Depression Scale (HADS) during the Khenergy phase 2 clinical trial (clinicaltrial.gov identifier NCT02909400). […] This observation was supported by a positive trend in the Hospital Anxiety and Depression Scale (effect size, −1.9 (95% Cl, −3.6 to −0.2); P=0.03).

The test system of experiment [2] is patients who suffer from chronic migraine. As to the kind of experiment: Khenergy phase 2 trial: patient-reported migraine and headache. It is filed as in vivo, human.
Text: as §1
Two patients from the Khenergy Phase 2 clinical trial have spontaneously reported a decreased frequency of migraine event during the treatment period with KH176 (reported before unblinding of the study). A third patient retrospectively reported that they had more migraines during the placebo treatment period over the KH176 treatment period.

Where [3] appears, read: 100 mg KH176 twice daily for 28 days vs matching placebo, cross-over.

On to `Cc1c(C)c2c(c(C)c1O)CC[C@@](C)(C(=O)N[C@@H]1CCCNC1)O2` [KH176], for which, in experiment [1] (setting [3]), the “Beck Depression Affective Subscale, effect size, comparison KH176-Placebo” value is on record as −1.1 and the “Beck Depression Inventory total score, effect size, comparison KH176-Placebo” value is reported as −2.9. In experiment [1] (KHENERGY trial, mitochondrial disease patients), the “effect on depression symptoms (in words)” value is on record as “significantly reduce depression symptoms”. In experiment [2] (KHENERGY trial, patients who previously chronically suffered from migraine, KH176 treatment period), the “effect on migraine events (in words)” value is “reduction of the intensity and number of migraine events”. Besides, the “headache during the 4 weeks of KH176” value in experiment [2] (Patient A, before: severe headaches every day, migraine 2 times a week) is recorded as “NO headache”. Besides, the “patients with a positive effect on migraine” value in experiment [2] (patients of the trial who suffer from chronic migraine) was 3 out of 3.

The values above are taken from patent US12208090B2, “Compounds for use in treating depression and migraine” (Khondrion IP B.V., priority 2017, dated 2025).
